Test results as given in US20090215036A1, “Genetic Alterations Useful For The Response Prediction of Malignant Neoplasia to Taxane-Based Medical Treatments” (Bayer HealthCare AG, priority 2004, published 2009).

How the values were obtained:
breast cancer patients [1] = assay: Bivariate DNA and/or RNA marker combinations, +Taxol arm vs. -Taxol arm, quadrant analysis with Kaplan-Meier plots; settings: GR3 + 4
breast cancer patients [2] = assay: Kaplan-Meier disease free survival of the two therapy arms (E-T-CMF vs. E-CMF) in respect to gene amplifications
Procedure: These samples were formalin-fixed and paraffin-embedded material from primary tumours. A detailed clinical report about all patients was available. The anonymized data included all medical, therapeutical, clinical, histo- and pathological, and follow-up information incl. relapse or survival time.
More than 60 genes were analyzed according to the method disclosed in examples 1 and 2 by quantitative PCR after nucleic acid extraction from formaldehyde-fixed, paraffin-embedded tissue slides. Alterations of the analyzed genes were determined by comparison with at least two reference genes. Reference genes included mainly MMP28 and HNRPDL, but also HBB, B2M, SOD2. […] The reference genes should be independent from the ARCHEON alterations occurring in the neoplastic lesions and should not be affected by chromosomal alterations such as amplifications and deletions. […] By measuring genes located on the X-chromosome (e.g. SRY), the Y-chromosome (e.g. Xist) and on chromosome 21, defined copy numbers of 1, 2 and 3 genes could be determined as internal control during each run for standardization. […] The calculated performance differences were used as a filter for the measurements within the target tissues, i.e. primer/probe differences of each individual gene as depicted in the control cells and tissues were subtracted from each individual gene measurement performed in the target tissue. […]

Which results are given for CC(=O)O[C@H]1C(=O)[C@@]2(C)[C@H]([C@H](OC(=O)c3ccccc3)[C@]3(O)C[C@H](OC(=O)[C@H](O)[C@@H](NC(=O)c4ccccc4)c4ccccc4)C(C)=C1C3(C)C)[C@]1(OC(C)=O)CO[C@@H]1C[C@@H]2O [Taxol]?
Benefit (breast cancer patients [1]; ABCG2_R thr 11.0 / SIVA_D thr 1.3, Quadrant LH): OUT: Always beneficial; Benefit (breast cancer patients [1]; AFP_R thr −2.2 / EMS1_R thr 18.9, Quadrant HL): OUT: Taxol beneficial; Benefit (breast cancer patients [1]; AFP_R thr −2.2 / FLT1_D thr 3.3, Quadrant HL): OUT: Taxol beneficial; Benefit (breast cancer patients [1]; AFP_R thr −2.2 / TRAG3_D thr 1.2, Quadrant HH): OUT: Taxol beneficial; Benefit (breast cancer patients [1]; AFP_R thr −2.2 / TWIST1_D thr 1.1, Quadrant HH): OUT: Taxol beneficial; Benefit (breast cancer patients [1]; AFP_R thr −2.5 / ISGF3G_D thr 3.7, Quadrant HL): OUT: Taxol beneficial; Benefit (breast cancer patients [1]; BUB3_D thr 2.0 / MST1_D thr 2.1, Quadrant HH): OUT: Always beneficial; Benefit (breast cancer patients [1]; CCNE2_R thr 13.4 / MST1_D thr 2.0, Quadrant LL): IN: Always beneficial; Benefit (breast cancer patients [1]; CIDEB_R thr 13.7 / ERBB3_R thr 14.7, Quadrant LH): IN: Taxol beneficial; Benefit (breast cancer patients [1]; CIDEB_R thr 13.7 / RIN1_D thr 2.1, Quadrant LL): IN: Taxol beneficial; Benefit (breast cancer patients [1]; EMS1_R thr 15.9 / RIN1_D thr 2.1, Quadrant HL): IN: Taxol beneficial; Benefit (breast cancer patients [1]; EMS1_R thr 16.9 / ERBB3_R thr 14.7, Quadrant HH): IN: Taxol beneficial; Benefit (breast cancer patients [1]; ERBB3_R thr 14.7 / BRMS1_D thr 4.6, Quadrant HL): IN: Taxol beneficial; Benefit (breast cancer patients [1]; ERBB3_R thr 14.7 / MUC1_D thr 2.6, Quadrant HL): IN: Taxol beneficial; Benefit (breast cancer patients [1]; ERBB3_R thr 14.7 / VEGF_D thr 3.9, Quadrant HL): IN: Taxol beneficial; Benefit (breast cancer patients [1]; ESR1_R thr 12.3 / CA9_R thr 1.4, Quadrant HH): OUT: Taxol beneficial; Benefit (breast cancer patients [1]; FNTA_R thr 11.9 / ERBB2_D thr 1.8, Quadrant HH): OUT: Always beneficial; Benefit (breast cancer patients [1]; FolR2_D thr 2.9 / VEGF_D thr 2.6, Quadrant HL): IN: Taxol beneficial; Benefit (breast cancer patients [1]; GSTP1_D thr 2.2 / ING1L_D thr 1.6, Quadrant LH): OUT: Always beneficial; Benefit (breast cancer patients [1]; GSTP1_D thr 2.4 / MST1_D thr 2.1, Quadrant LH): OUT: Always beneficial; Benefit (breast cancer patients [1]; KISS I_D thr 1.3 / ERBB2_D thr 1.8, Quadrant HH): OUT: Always beneficial; Benefit (breast cancer patients [1]; MYC2_D thr 2.1 / ERBB3_R thr 14.4, Quadrant HH): IN: Taxol beneficial; Benefit (breast cancer patients [1]; MYC2_D thr 2.2 / CASP10_D thr 2.2, Quadrant HL): IN: Taxol beneficial; Benefit (breast cancer patients [1]; PGR_R thr 9.1 / RIN1_D thr 2.1, Quadrant HL): IN: Taxol beneficial; Benefit (breast cancer patients [1]; PGR_R thr 14.3 / ERBB3_R thr 14.7, Quadrant LH): IN: Taxol beneficial; Benefit (breast cancer patients [1]; PVT1_D thr 1.3 / RIN1_D thr 2.1, Quadrant HL): IN: Taxol beneficial; Benefit (breast cancer patients [1]; RAD54B_D thr 1.2 / ERBB2_D thr 1.8, Quadrant HH): OUT: Always beneficial; Benefit (breast cancer patients [1]; RIN1_D thr 2.1 / EMS1_D thr 1.2, Quadrant LH): IN: Taxol beneficial; Benefit (breast cancer patients [1]; RIN1_D thr 2.1 / VEGF_D thr 1.5, Quadrant LH): IN: Taxol beneficial; Benefit (breast cancer patients [1]; STAU_R thr 17.6 / FLT1_R thr 3.5, Quadrant LL): OUT: Taxol beneficial; Benefit (breast cancer patients [1]; TONDO_R thr 12.2 / ErbB4_D thr 2.2, Quadrant LH): IN: Taxol beneficial; Benefit (breast cancer patients [1]; VEGFa_R thr 13.0 / BOP1_D thr 2.0, Quadrant HH): OUT: Always beneficial; Benefit (breast cancer patients [1]; VEGFa_R thr 14.1 / AFP_R thr −1.0, Quadrant LH): IN: Always beneficial; outcome of Taxol therapy in patients with gene amplification (breast cancer patients [2]; FIGS. 2a-c, ErbB4 and VEGF amplified, alone or as a marker set of two genes): benefit from Taxol therapy; correlation of gene amplification to Taxol resistance (breast cancer patients [2]; TRAG3 amplification): no strong correlation
